Measurements: PMC8414367, “(E)-7-Ethylidene-lithocholic Acid (7-ELCA) Is a Potent Dual Farnesoid X Receptor (FXR) Antagonist and GPBAR1 Agonist Inhibiting FXR-Induced Gene Expression in Hepatocytes and Stimulating Glucagon-like Peptide-1 Secretion From Enteroendocrine Cells” (Frontiers in Pharmacology, 2021)
Where two headings read alike, the source gives them in different places.

Tests used:
human FXR = target: T1, human FXR (Homo sapiens, UniProt Q96RI1); test: FXR luciferase reporter gene assay (FXRE-luc) in HepG2 cells, antagonistic mode; format: cell-based; details: for remaining activity at 10 µM: tested compound 10 µM; for remaining activity at 40 µM: tested compound 40 µM, * = significant effect on cellular viability; for capacity to antagonize OCA-stimulated FXR activation (in words): Figure 3B
T1 sequence (Q96RI1 1-486): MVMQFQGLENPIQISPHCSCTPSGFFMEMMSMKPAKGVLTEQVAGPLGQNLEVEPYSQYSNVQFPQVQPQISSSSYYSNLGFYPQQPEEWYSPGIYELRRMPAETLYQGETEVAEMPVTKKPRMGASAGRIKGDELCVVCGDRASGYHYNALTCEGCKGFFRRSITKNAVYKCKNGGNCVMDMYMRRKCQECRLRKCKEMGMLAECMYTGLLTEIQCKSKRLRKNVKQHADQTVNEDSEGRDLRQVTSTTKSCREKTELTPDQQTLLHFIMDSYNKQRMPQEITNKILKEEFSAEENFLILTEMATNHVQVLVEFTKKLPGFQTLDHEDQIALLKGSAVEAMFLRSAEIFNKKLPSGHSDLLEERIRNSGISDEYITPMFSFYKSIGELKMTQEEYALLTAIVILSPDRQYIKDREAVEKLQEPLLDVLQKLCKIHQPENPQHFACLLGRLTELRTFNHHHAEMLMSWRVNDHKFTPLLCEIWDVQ
T1 sequence (P19793 1-462 partner): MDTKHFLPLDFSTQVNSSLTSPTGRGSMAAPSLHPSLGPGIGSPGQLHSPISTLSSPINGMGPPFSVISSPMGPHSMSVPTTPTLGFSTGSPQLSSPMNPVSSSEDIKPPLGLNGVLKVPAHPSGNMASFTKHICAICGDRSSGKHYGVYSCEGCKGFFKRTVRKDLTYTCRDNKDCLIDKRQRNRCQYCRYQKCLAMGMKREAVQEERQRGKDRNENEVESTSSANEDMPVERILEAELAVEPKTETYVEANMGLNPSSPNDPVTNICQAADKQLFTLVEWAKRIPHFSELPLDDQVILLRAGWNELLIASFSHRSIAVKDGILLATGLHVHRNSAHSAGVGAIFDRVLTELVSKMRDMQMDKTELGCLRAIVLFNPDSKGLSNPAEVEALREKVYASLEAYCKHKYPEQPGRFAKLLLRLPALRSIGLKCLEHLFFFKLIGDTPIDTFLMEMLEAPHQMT

FXR LBD = target: T2, FXR LBD (Homo sapiens, UniProt Q96RI1); test: LanthaScreen TR-FRET FXR Coactivator Assay, antagonistic mode (SRC-2 peptide recruitment); format: biochemical
T2 construct: purchased ThermoFisher Scientific PV4833
T2 sequence (Q96RI1 262-486 limits assumed): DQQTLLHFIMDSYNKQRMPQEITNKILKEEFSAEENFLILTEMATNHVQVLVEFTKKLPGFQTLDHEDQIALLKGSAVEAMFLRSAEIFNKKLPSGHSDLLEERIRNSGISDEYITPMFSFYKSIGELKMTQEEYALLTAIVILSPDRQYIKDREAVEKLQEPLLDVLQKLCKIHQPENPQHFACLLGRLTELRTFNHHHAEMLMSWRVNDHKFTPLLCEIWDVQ
Protocol: The LanthaScreen® TR-FRET FXR Coactivator Assay (goat, PV4833, ThermoFisher Scientific) was performed to assess the affinity of tested compounds to FXR ligand-binding domain (LBD) in agonistic and antagonistic models. In the antagonistic assays, the FXR LBD was co-incubated with OCA or GW4064, together with tested ligands in increasing concentrations. The assay was performed according to the manufacturer’s protocols. […] Data have been obtained from three independent experiments performed in 4 replicates.

MTS viability assay [1] = format: cell-based, murine; details: mouse, AML12 cells; AML12, 24 h, vehicle = 100%
Protocol: (§1) The potential cytotoxicity of 7-alkylated chenodeoxycholic acid derivatives were assessed in different human (HepG2, HepaRG and Huh7) and murine (AML12) hepatocyte-derived cell lines. For this purpose, hepatic cells were treated at increasing concentration for 24h and analyzed by MTS viability assay.
(§2) Table S2. Cell viability was determined using the Cell Titer 96 Aqueous One Solution Cell Proliferation Assay (MTS assay) after treatment with test compounds for 24 h in four different hepatic cell lines. Vehicle (0.1% DMSO) and background (10% SDS; v/v, toxic control) controls of cell viability were set to be 100% and 0%, respectively.

AML12 = test: MTS viability assay; format: cell-based, murine; details: Mus musculus; AML12, 24 h, MTS; read-out: IC50 (µM), cell viability
Protocol: as §1, §2

MTS viability assay [2] = format: cell-based, human; details: human, vehicle = 100%
Protocol: as §1, §2

Huh7 = test: MTS viability assay; format: cell-based, human; details: Homo sapiens, Huh-7; Huh7, 24 h, MTS; read-out: IC50 (µM), cell viability
Protocol: as §1, §2

HepG2 = test: MTS viability assay; format: cell-based, human; details: Homo sapiens; HepG2, 24 h, MTS; read-out: IC50 (µM), cell viability
Protocol: as §1, §2

HepaRG = test: MTS viability assay; format: cell-based, human; details: Homo sapiens, 24 h, MTS, read-out: IC50 (µM), cell viability
Protocol: as §1, §2

GPBAR1 = target: T3, GPBAR1 (Homo sapiens, UniProt Q8TDU6); test: GPBAR1 CRE-luc luciferase reporter assay in HepG2 cells; format: cell-based; details: 10 µM, 5 h, LCA 10 µM set as 100%
T3 construct: host or cells: HepG2
T3 sequence (Q8TDU6 1-330): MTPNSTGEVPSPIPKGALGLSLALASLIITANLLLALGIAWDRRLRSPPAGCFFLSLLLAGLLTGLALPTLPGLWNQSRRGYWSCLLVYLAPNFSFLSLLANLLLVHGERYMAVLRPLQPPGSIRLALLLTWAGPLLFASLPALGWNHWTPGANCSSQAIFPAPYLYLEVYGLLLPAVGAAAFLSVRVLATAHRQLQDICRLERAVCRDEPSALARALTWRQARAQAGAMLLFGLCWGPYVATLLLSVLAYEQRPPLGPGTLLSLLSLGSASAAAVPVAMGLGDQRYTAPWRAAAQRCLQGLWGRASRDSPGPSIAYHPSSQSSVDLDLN
Protocol: (C) Effects of LCA and 7-ELCA (both at 10 µM) on intracellular generation of cAMP in differentiated NCI-H716 cells after 30 min treatment. The increase in cAMP level (ΔcAMP) is presented as the difference between cAMP concertation in the treated sample after subtraction of the cAMP in the nontreated control sample. (D) Concentration-response curves for activation of GPBAR1 by LCA and 7-ELCA. EC50 values were calculated using nonlinear fitting of concentration-response curves. […] GLP-1 was normalized to protein concentration and GPBAR1 mRNA expression to GAPDH mRNA. Data are presented as a fold to control nontreated (NT) samples. Forskolin (FSK, 10 µM) was used as a GPBAR1-independent activator of cAMP production.

[3] = HepG2, GW4064 1 µM, read-out: relative response (%) to the model FXR ligand activation (set to be 100%), GW4064 1 µM
[4] = HepG2, CDCA 20 µM, read-out: relative response (%) to the model FXR ligand activation (set to be 100%), CDCA 20 µM

Row | SMILES | IC50 (human FXR; HepG2, co-treatment with 1 µM OCA, 24 h, read-out: IC50, inhibition of OCA-induced FXR activation) [µM] | inhibition at 100 µM (human FXR; HepG2, at 100 µM, with 1 µM OCA, read-out: inhibition of FXR activation) [%] | remaining activity at 10 µM (human FXR; [3]) [%] | remaining activity at 40 µM (human FXR; [4]) [%] | remaining activity at 40 µM (human FXR; [3]) [%] | IC50 (FXR LBD; GW4064 1 µM, read-out: IC50, inhibition of GW4064-promoted interaction of SRC-2 and FXR) [µM] | IC50 (FXR LBD; OCA 1 µM, read-out: IC50, inhibition of OCA-induced recruitment of SRC-2 to FXR LBD) [µM] | viability at 24 h, 10 µM (MTS viability assay [1]) [%] | IC50 (AML12) [µM] | viability at 24 h, 10 µM (MTS viability assay [2]; HepG2 cells, HepG2, 24 h) [%] | viability at 24 h, 10 µM (MTS viability assay [2]; HepaRG cells) [%] | viability at 24 h, 10 µM (MTS viability assay [2]; Huh7 cells, Huh7, 24 h) [%] | IC50 (Huh7) [µM] | IC50 (HepG2) [µM] | IC50 (HepaRG) [µM] | CRE-luc activation compared to LCA (in words) (GPBAR1) | capacity to antagonize OCA-stimulated FXR activation (in words) (human FXR; with 1 µM OCA)
1 | CC(CCC(=O)O)C1CCC2C3C(CCC12C)C1(C)CCC(O)CC1CC3(O)C(C)C (stereo not drawn) [2h, 3α,7α-Dihydroxy-7β-isopropyl-5β-cholan-24-oic acid] | 17.5 ± 1.7 | ~90 | 91.4 ± 5.3 | 47.6 ± 0.3 | 63 ± 8.2 | 35.2 ± 5.4 | 25 ± 3.7 | 94 ± 3.7 | 143 | 93.4 ± 7.4 | 101 ± 6.9 | 97.6 ± 7.3 | > 100 | 103.3 ± 1 | 181 | – | –
2 | CC[C@@]1(O)C[C@@H]2C[C@H](O)CC[C@]2(C)C2CC[C@@]3(C)C(CC[C@@H]3[C@H](C)CCC(=O)O)C21 (stereo partly drawn) [2c, 3α,7α-Dihydroxy-7β-ethyl-5β-cholan-24-oic acid] | – | – | 89 ± 6 | 67.1 ± 9.2 | 75.3 ± 2.5 | – | – | 105 ± 2 | > 200 | 100 ± 3.9 | 117 ± 1.3 | 113 ± 4.8 | > 200 | > 200 | > 200 | – | –
3 | C=CC[C@@]1(O)C[C@@H]2C[C@H](O)CC[C@]2(C)C2CC[C@@]3(C)C(CC[C@@H]3[C@H](C)CCC(=O)O)C21 (stereo partly drawn) [2g, 3α,7α-Dihydroxy-7β-allyl-5β-cholan-24-oic acid] | – | – | 93.2 ± 0.6 | 107.2 ± 0.3 | 74.4 ± 4.4 | – | – | 109 ± 3.2 | 161 | 97.7 ± 9.1 | 126 ± 4.5 | 93.5 ± 10 | > 100 | 162 ± 2.1 | > 200 | comparable activities to LCA | maintained
4 | C[C@H](CCC(=O)O)[C@H]1CCC2C3C(CC[C@@]21C)[C@@]1(C)CC[C@@H](O)C[C@H]1C[C@@]3(C)O (stereo partly drawn) [2b, 3α,7α-Dihydroxy-7β-methyl-5β-cholan-24-oic acid] | – | – | 85 ± 7.7 | 112 ± 1.6 | 64.9 ± 5 | – | – | 108 ± 7.7 | > 200 | 99.7 ± 1.2 | 119.5 ± 1 | 106 ± 5.8 | > 200 | > 200 | > 200 | – | –
5 | C=CCCC[C@@]1(O)C[C@@H]2C[C@H](O)CC[C@]2(C)C2CC[C@@]3(C)C(CC[C@@H]3[C@H](C)CCC(=O)O)C21 (stereo partly drawn) [2j, 3α,7α-Dihydroxy-7β-(pent-4-en)-5β-cholan-24-oic acid] | – | – | 93.6 ± 2.8 | – | – | – | – | 127 ± 7.1 | 75 | 87.8 ± 6.7 | 93.1 ± 4.4 | 114 ± 7 | 34 ± 1.5 | 77.3 ± 1.2 | 76.5 | weak or no ability to act as agonists of GPBAR1 | maintained
6 | C=C[C@@]1(O)C[C@@H]2C[C@H](O)CC[C@]2(C)C2CC[C@@]3(C)C(CC[C@@H]3[C@H](C)CCC(=O)O)C21 (stereo partly drawn) [2d, 3α,7α-Dihydroxy-7β-vinyl-5β-cholan-24-oic acid] | – | – | 93.9 ± 6.6 | 80.2 ± 0.4 | 75.2 ± 4.6 | – | – | 106 ± 3.9 | > 200 | 95.9 ± 8.3 | 104 ± 2.4 | 117 ± 5.6 | > 100 | 168.8 ± 1 | > 200 | – | maintained
7 | C#C[C@@]1(O)C[C@@H]2C[C@H](O)CC[C@]2(C)C2CC[C@@]3(C)C(CC[C@@H]3[C@H](C)CCC(=O)O)C21 (stereo partly drawn) [2e, 3α,7α-Dihydroxy-7β-ethynyl-5β-cholan-24-oic acid] | – | – | 80.3 ± 3.9 | 114.8 ± 0.7 | 64.8 ± 4.9 | – | – | 97.5 ± 6.6 | > 200 | 96.5 ± 4.1 | 92.9 ± 6.5 | 103 ± 4.4 | > 200 | > 200 | > 200 | weak or no ability to act as agonists of GPBAR1 | only minor antagonist activity
